Measured values as given in patent US20260116920A1, “HUMAN TRANSFERRIN RECEPTOR BINDING PEPTIDE” (PEPTIDREAM INC., priority 2021, published 2026).
Starred links: 1 amine or outer side, 2 acyl side, 3 side chain; linkers in the order of their positions; H or OH if unused. Positions of bridges follow the written chain, without caps; N, C: chain ends. Non-standard residues stand in square brackets, D forms with d. Residues, ends and D or L forms follow the SMILES beside them. Groups on a side chain read outwards from the residue. *: point of attachment. Trp(1-CH2COOH) = N[C@@H](Cc1cn(CC(=O)O)c2ccccc12)C(=O)O; Phe(3-COOH) = N[C@@H](Cc1cccc(C(=O)O)c1)C(=O)O; NMePhe(3-Cl) = CN[C@@H](Cc1cccc(Cl)c1)C(=O)O; Piperazinyl(4-CH2COOH) = O=C(O)CN1CCN(*)CC1; 3Pal(6-NH2) = Nc1ccc(C[C@H](N)C(=O)O)cn1; NMeY = CN[C@@H](Cc1ccc(O)cc1)C(=O)O; NH(CH2CH2O)4Me = COCCOCCOCCOCCN*; 4Pal = N[C@@H](Cc1ccncc1)C(=O)O; PEG4 = NCCOCCOCCOCCOCCC(=O)O; Carboxymethyl = O=C(O)C*; CO = O=C([*:1])[*:2]; X4 = COCC(COC)N*

Target: T1, human transferrin receptor (hTfR) (Homo sapiens, UniProt P02786)
T1 construct: made in house
Experiment: Evaluation of molecular interaction between transferrin receptor (hTfR) and peptide using surface plasmon resonance (SPR)
Assay type: binding
Details: surface plasmon resonance, binding to hTfR; KD class symbol; read-out: SPR (KD value)
How it was run: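 Using a Ni-NTA surface bearing covalently coupled hTfR dimer, peptides were tested at five concentrations from 5 to 100 nM. Running buffer was 10 mM HEPES pH 8.0, 150 mM NaCl, 0.05% Tween 20, 0.1% BSA, 1.0% DMSO; single-cycle sensorgrams were least-squares fitted for KD.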

T1 sequence (P02786 89-760 limits assumed): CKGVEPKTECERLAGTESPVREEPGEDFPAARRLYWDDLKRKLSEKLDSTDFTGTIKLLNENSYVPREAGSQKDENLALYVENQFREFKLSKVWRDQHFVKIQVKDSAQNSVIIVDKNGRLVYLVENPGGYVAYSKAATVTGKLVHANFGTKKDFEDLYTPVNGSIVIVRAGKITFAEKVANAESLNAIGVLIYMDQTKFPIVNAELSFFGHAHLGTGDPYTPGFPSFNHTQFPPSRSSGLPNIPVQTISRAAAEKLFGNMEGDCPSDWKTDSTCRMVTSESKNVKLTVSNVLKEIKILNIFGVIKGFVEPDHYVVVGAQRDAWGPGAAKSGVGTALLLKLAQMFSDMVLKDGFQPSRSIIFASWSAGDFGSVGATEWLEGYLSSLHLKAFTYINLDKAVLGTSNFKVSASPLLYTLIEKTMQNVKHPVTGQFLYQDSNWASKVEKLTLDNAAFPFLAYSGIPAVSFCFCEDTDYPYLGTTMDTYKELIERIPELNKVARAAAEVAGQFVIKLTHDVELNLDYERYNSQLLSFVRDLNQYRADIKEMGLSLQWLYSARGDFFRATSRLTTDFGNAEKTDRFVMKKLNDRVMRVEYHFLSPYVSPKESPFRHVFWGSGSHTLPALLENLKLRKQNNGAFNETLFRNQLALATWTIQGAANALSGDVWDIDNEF

Row | Compound | Kd [nM]
1 | CC[C@H](C)[C@@H]1NC(=O)[C@H](Cc2ccc(OCC(=O)O)cc2)NC(=O)[C@H](Cc2ccc(O)cc2)NC(=O)[C@H](CC(N)=O)NC(=O)[C@H](Cc2cn(CC(=O)O)c3ccccc23)NC(=O)[C@H](C(C)C)NC(=O)[C@H](Cc2cccc(Cl)c2)N(C)C(=O)[C@H](C(C)C)NC(=O)[C@H](C)NC(=O)CSC[C@@H](C(=O)NCCOCCOCCOCCOCCC(N)=O)NC(=O)[C@H](Cc2ccc(O)cc2)N(C)C(=O)[C@H](Cc2ccccc2)NC(=O)[C@H](CCCNC(=N)N)NC(=O)[C@H](CCC(N)=O)NC(=O)[C@H]([C@@H](C)CC)NC1=O [compound 104] | 1 to 100
2 | CC[C@H](C)[C@@H]1NC(=O)[C@H](Cc2ccc(OCC(=O)O)cc2)NC(=O)[C@H](Cc2ccc(O)cc2)NC(=O)[C@H](CC(N)=O)NC(=O)[C@H](Cc2cn(CC(=O)O)c3ccccc23)NC(=O)[C@H](C(C)C)NC(=O)[C@H](Cc2cccc(Cl)c2)N(C)C(=O)[C@H](C(C)C)NC(=O)[C@H](C)NC(=O)CSC[C@@H](C(=O)NCCOCCOCCOCCOCCC(N)=O)NC(=O)[C@H](Cc2ccc(O)cc2)N(C)C(=O)[C@H](Cc2ccccc2)NC(=O)[C@H](CCC(N)=O)NC(=O)[C@H](CCCNC(=N)N)NC(=O)[C@H]([C@@H](C)CC)NC1=O [compound 105] | 1 to 100
3 | CC[C@H](C)[C@@H]1NC(=O)[C@H](Cc2ccc(OC)cc2)NC(=O)[C@H](Cc2ccc(O)cc2)NC(=O)[C@H](CC(N)=O)NC(=O)[C@H](Cc2cn(CC(=O)O)c3ccccc23)NC(=O)[C@H](C(C)C)NC(=O)[C@H](Cc2cccc(Cl)c2)N(C)C(=O)[C@H](C(C)C)NC(=O)[C@H](C)NC(=O)CSC[C@@H](C(=O)NCCOCCOCCOCCOCCC(N)=O)NC(=O)[C@H](Cc2ccc(O)cc2)N(C)C(=O)[C@H](Cc2ccccc2)NC(=O)[C@H](CCCNC(=N)N)NC(=O)[C@H](CCCNC(=N)N)NC(=O)[C@H]([C@@H](C)CC)NC1=O [compound 108] | < 1
4 | CC[C@H](C)[C@@H]1NC(=O)[C@H](Cc2ccc(OCC(=O)O)cc2)NC(=O)[C@H](Cc2ccc(O)cc2)NC(=O)[C@H](CC(N)=O)NC(=O)[C@H](Cc2c[nH]c3ccccc23)NC(=O)[C@H](C(C)C)NC(=O)[C@H](Cc2cccc(Cl)c2)N(C)C(=O)[C@H](C(C)C)NC(=O)[C@H](C)NC(=O)CSC[C@@H](C(=O)NCCOCCOCCOCCOCCC(N)=O)NC(=O)[C@H](Cc2ccc(O)cc2)N(C)C(=O)[C@H](Cc2ccccc2)NC(=O)[C@H](CCCNC(=N)N)NC(=O)[C@H](CCCNC(=N)N)NC(=O)[C@H]([C@@H](C)CC)NC1=O [compound 109] | < 1
5 | CC[C@H](C)[C@@H]1NC(=O)[C@H](Cc2ccc(OCC(=O)O)cc2)NC(=O)[C@H](Cc2ccc(O)cc2)NC(=O)[C@H](CC(N)=O)NC(=O)[C@H](Cc2cn(CC(=O)O)c3ccccc23)NC(=O)[C@H](C(C)C)NC(=O)[C@H](Cc2cccc(Cl)c2)N(C)C(=O)[C@H](C(C)C)NC(=O)[C@H](C)NC(=O)CSC[C@@H](C(=O)NCCOCCOCCOCCOCCC(N)=O)NC(=O)[C@H](Cc2ccc(O)cc2)N(C)C(=O)[C@H](Cc2ccccc2)NC(=O)[C@H](CCCNC(=N)N)NC(=O)[C@H](CCC(=O)NCCOCCOCCOCCOC)NC(=O)[C@H]([C@@H](C)CC)NC1=O [compound 110] | 1 to 100
6 | CC[C@H](C)[C@@H]1NC(=O)[C@H](Cc2ccc(OCC(=O)O)cc2)NC(=O)[C@H](Cc2ccc(O)cc2)NC(=O)[C@H](CC(N)=O)NC(=O)[C@H](Cc2cn(CC(=O)O)c3ccccc23)NC(=O)[C@H](C(C)C)NC(=O)[C@H](Cc2cccc(Cl)c2)N(C)C(=O)[C@H](C(C)C)NC(=O)[C@H](C)NC(=O)CSC[C@@H](C(=O)NCCOCCOCCOCCOCCC(N)=O)NC(=O)[C@H](Cc2ccc(O)cc2)N(C)C(=O)[C@H](Cc2ccccc2)NC(=O)[C@H](CCCCNC(=O)N2CCN(CC(=O)O)CC2)NC(=O)[C@H](CCC(=O)NCCOCCOCCOCCOC)NC(=O)[C@H]([C@@H](C)CC)NC1=O [compound 115] ({CH2CO}-AV[NMePhe(3-Cl)]V[Trp(1-CH2COOH)]NYY(Carboxymethyl)IIE(NH(CH2CH2O)4Me)K([CO-Piperazinyl(4-CH2COOH)])F[NMeY]C[PEG4]-NH2; thioether N-15) | 1 to 100

Results, then the molecule that gave them:

Row | Kd [nM] | Compound
7 | 1 to 100 | CC[C@H](C)[C@@H]1NC(=O)[C@H](Cc2ccc(O)cc2)NC(=O)[C@H](Cc2ccc(O)cc2)NC(=O)[C@H](CC(N)=O)NC(=O)[C@H](Cc2c[nH]c3ccccc23)NC(=O)[C@H](C(C)C)NC(=O)[C@H](Cc2ccccc2)N(C)C(=O)[C@H](C(C)C)NC(=O)[C@H](C)NC(=O)CSC[C@@H](C(=O)NCC(=O)N[C@H](CCC(=O)O)C(=O)N[C@H](CCC(=O)O)C(=O)N[C@H](CCC(=O)O)C(=O)N[C@H](CCC(=O)O)C(=O)N[C@H](CCC(=O)O)C(=O)N[C@@H](CSCC(=O)NC)C(N)=O)NC(=O)[C@H](Cc2ccc(O)cc2)N(C)C(=O)[C@H](Cc2ccc(O)cc2)NC(=O)[C@H](CCCNC(=N)N)NC(=O)[C@H](CCCNC(=N)N)NC(=O)[C@H]([C@@H](C)CC)NC1=O [compound 107]
8 | 1 to 100 | CC[C@H](C)[C@@H]1NC(=O)[C@H](Cc2ccc(OCC(=O)O)cc2)NC(=O)[C@H](Cc2ccc(O)cc2)NC(=O)[C@H](CC(N)=O)NC(=O)[C@H](Cc2cn(CC(=O)O)c3ccccc23)NC(=O)[C@H](C(C)C)NC(=O)[C@H](Cc2cccc(Cl)c2)N(C)C(=O)[C@H](C(C)C)NC(=O)[C@H](C)NC(=O)CSC[C@@H](C(=O)NCCOCCOCCOCCOCCC(N)=O)NC(=O)[C@H](Cc2ccc(O)cc2)N(C)C(=O)[C@H](Cc2ccccc2)NC(=O)[C@H](CCCNC(=N)N)NC(=O)[C@H](CCC(=O)NC(COC)COC)NC(=O)[C@H]([C@@H](C)CC)NC1=O [compound 111]
9 | < 1 | CC[C@H](C)[C@@H]1NC(=O)[C@H](Cc2ccc(OCC(=O)O)cc2)NC(=O)[C@H](Cc2ccc(O)cc2)NC(=O)[C@H](CC(N)=O)NC(=O)[C@H](Cc2c[nH]c3ccccc23)NC(=O)[C@H](C(C)C)NC(=O)[C@H](Cc2cccc(Cl)c2)N(C)C(=O)[C@H](C(C)C)NC(=O)[C@H](C)NC(=O)CSC[C@@H](C(=O)NCCOCCOCCOCCOCCC(N)=O)NC(=O)[C@H](Cc2ccc(O)cc2)N(C)C(=O)[C@H](Cc2ccccc2)NC(=O)[C@H](CCCNC(=N)N)NC(=O)[C@H](CCC(=O)NCCOCCOCCOCCOCCOCCOCCOCCOC)NC(=O)[C@H]([C@@H](C)CC)NC1=O [compound 112]
10 | 1 to 100 | CC[C@H](C)[C@@H]1NC(=O)[C@H](Cc2ccc(OCC(=O)O)cc2)NC(=O)[C@H](Cc2ccc(O)cc2)NC(=O)[C@H](CC(N)=O)NC(=O)[C@H](Cc2c[nH]c3ccccc23)NC(=O)[C@H](C(C)C)NC(=O)[C@H](Cc2cccc(Cl)c2)N(C)C(=O)[C@H](C(C)C)NC(=O)[C@H](C)NC(=O)CSC[C@@H](C(=O)NCCOCCOCCOCCOCCC(N)=O)NC(=O)[C@H](Cc2ccc(O)cc2)N(C)C(=O)[C@H](Cc2ccccc2)NC(=O)[C@H](CCCNC(=N)N)NC(=O)[C@H](CCC(=O)NCCOCCOCCOCCOC)NC(=O)[C@H]([C@@H](C)CC)NC1=O [compound 113]
11 | < 1 | CC[C@H](C)[C@@H]1NC(=O)[C@H](Cc2ccc(OCC(=O)O)cc2)NC(=O)[C@H](Cc2ccc(O)cc2)NC(=O)[C@H](CC(N)=O)NC(=O)[C@H](Cc2c[nH]c3ccccc23)NC(=O)[C@H](C(C)C)NC(=O)[C@H](Cc2cccc(Cl)c2)N(C)C(=O)[C@H](C(C)C)NC(=O)[C@H](C)NC(=O)CSC[C@@H](C(=O)NCCOCCOCCOCCOCCC(N)=O)NC(=O)[C@H](Cc2ccc(O)cc2)N(C)C(=O)[C@H](Cc2cccc(C(=O)O)c2)NC(=O)[C@H](CCCNC(=N)N)NC(=O)[C@H](CCC(=O)NC(COC)COC)NC(=O)[C@H]([C@@H](C)CC)NC1=O [compound 114] ({CH2CO}-AV[NMePhe(3-Cl)]VWNYY(Carboxymethyl)IIE(X4)R[Phe(3-COOH)][NMeY]C[PEG4]-NH2; thioether N-15)
12 | 1 to 100 | CC[C@H](C)[C@@H]1NC(=O)[C@H](Cc2ccc(OCC(=O)O)cc2)NC(=O)[C@H](Cc2ccc(O)cc2)NC(=O)[C@H](CC(N)=O)NC(=O)[C@H](Cc2c[nH]c3ccccc23)NC(=O)[C@H](C(C)C)NC(=O)[C@H](Cc2cccc(Cl)c2)N(C)C(=O)[C@H](C(C)C)NC(=O)[C@H](C)NC(=O)CSC[C@@H](C(=O)NCCOCCOCCOCCOCCC(N)=O)NC(=O)[C@H](Cc2ccc(O)cc2)N(C)C(=O)[C@H](Cc2ccccc2)NC(=O)[C@H](CCCCNC(=O)N2CCN(CC(=O)O)CC2)NC(=O)[C@H](CCC(=O)NCCOCCOCCOCCOC)NC(=O)[C@H]([C@@H](C)CC)NC1=O [compound 116] ({CH2CO}-AV[NMePhe(3-Cl)]VWNYY(Carboxymethyl)IIE(NH(CH2CH2O)4Me)K([CO-Piperazinyl(4-CH2COOH)])F[NMeY]C[PEG4]-NH2; thioether N-15)
13 | 1 to 100 | CC[C@H](C)[C@@H]1NC(=O)[C@H](Cc2ccc(OCC(=O)O)cc2)NC(=O)[C@H](Cc2ccc(N)nc2)NC(=O)[C@H](CC(N)=O)NC(=O)[C@H](Cc2cn(CC(=O)O)c3ccccc23)NC(=O)[C@H](C(C)C)NC(=O)[C@H](Cc2cccc(Cl)c2)N(C)C(=O)[C@H](C(C)C)NC(=O)[C@H](C)NC(=O)CSC[C@@H](C(=O)NCCOCCOCCOCCOCCC(N)=O)NC(=O)[C@H](Cc2ccc(O)cc2)N(C)C(=O)[C@H](Cc2ccncc2)NC(=O)[C@H](CCCNC(=N)N)NC(=O)[C@H](CCC(=O)NCCOCCOCCOCCOC)NC(=O)[C@H]([C@@H](C)CC)NC1=O [compound 117]
14 | 1 to 100 | CC[C@H](C)[C@@H]1NC(=O)[C@H](Cc2ccc(OCC(=O)O)cc2)NC(=O)[C@H](Cc2ccc(N)nc2)NC(=O)[C@H](CC(N)=O)NC(=O)[C@H](Cc2c[nH]c3ccccc23)NC(=O)[C@H](C(C)C)NC(=O)[C@H](Cc2cccc(Cl)c2)N(C)C(=O)[C@H](C(C)C)NC(=O)[C@H](C)NC(=O)CSC[C@@H](C(=O)NCCOCCOCCOCCOCCC(N)=O)NC(=O)[C@H](Cc2ccc(O)cc2)N(C)C(=O)[C@H](Cc2ccncc2)NC(=O)[C@H](CCCCNC(=O)N2CCN(CC(=O)O)CC2)NC(=O)[C@H](CCC(=O)NCCOCCOCCOCCOC)NC(=O)[C@H]([C@@H](C)CC)NC1=O [compound 118] ({CH2CO}-AV[NMePhe(3-Cl)]VWN[3Pal(6-NH2)]Y(Carboxymethyl)IIE(NH(CH2CH2O)4Me)K([CO-Piperazinyl(4-CH2COOH)])[4Pal][NMeY]C[PEG4]-NH2; thioether N-15)
